This test concerns the target T1, Tryp-N (Thermochaetoides thermophila, UniProt G0SEK4).
T1 sequence (G0SEK4 68-292): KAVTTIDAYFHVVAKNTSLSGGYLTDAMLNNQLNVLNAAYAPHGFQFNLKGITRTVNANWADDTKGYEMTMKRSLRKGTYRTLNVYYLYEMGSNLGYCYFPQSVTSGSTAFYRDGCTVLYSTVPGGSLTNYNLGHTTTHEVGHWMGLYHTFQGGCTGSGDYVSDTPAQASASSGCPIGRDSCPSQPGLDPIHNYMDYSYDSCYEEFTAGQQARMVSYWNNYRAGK
Briefly: protease activity assay, probably FITC-labeled casein. In kind it is biochemical.

Our source for the IC50 values is article PMC7842235 (Journal of proteome research, 2020).

Turning to `N=C(N)c1ccccc1` [benzamidine], the IC50 is approximately 500 µM.

Usually IC50 stands for the midpoint of a concentration-inhibition curve. A higher IC50 goes with lower potency.
